Reference: the supplement of paper PMC10307832

Tests used:
Assay in all cases: relative viability (nuclei count vs DMSO), 5 days (fraction); higher = more cells survive
NCI-H1734 = tested on: NCI-H1734
Method in brief: (§1)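 Five library-drug doses in √10 steps were combined with a fixed anchor-drug dose, or a single drug was given alone, by pin tool to lung cancer cell lines in 1536-well plates the day after seeding. Nuclei were stained and counted after 5 days. Relative viability is the nuclei count in treated wells over that in vehicle wells, taken as the median of duplicate plates.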

NCI-H2085 = tested on: NCI-H2085
Method in brief: as §1

COR-L23 = tested on: COR-L23
Method in brief: as §1

NCI-H1437 = tested on: NCI-H1437
Method in brief: as §1

NCI-H1651 = tested on: NCI-H1651
Method in brief: as §1

SK-LU-1 = tested on: SK-LU-1
Method in brief: as §1

CAL-12T = tested on: CAL-12T
Method in brief: as §1

NCI-H358 = tested on: NCI-H358
Method in brief: as §1

LOU-NH91 = tested on: LOU-NH91
Method in brief: as §1

NCI-H1650 = tested on: NCI-H1650
Method in brief: as §1

LU99A = tested on: LU99A
Method in brief: as §1

NCI-H1975 = tested on: NCI-H1975
Method in brief: as §1

NCI-H1355 = tested on: NCI-H1355
Method in brief: as §1

NCI-H2342 = tested on: NCI-H2342
Method in brief: as §1

BEN = tested on: BEN
Method in brief: as §1

NCI-H1793 = tested on: NCI-H1793
Method in brief: as §1

NCI-H460 = tested on: NCI-H460
Method in brief: as §1

NCI-H838 = tested on: NCI-H838
Method in brief: as §1

HCC-366 = tested on: HCC-366
Method in brief: as §1

NCI-H441 = tested on: NCI-H441
Method in brief: as §1

NCI-H2023 = tested on: NCI-H2023
Method in brief: as §1

CC(=O)O[C@@]12CO[C@@H]1C[C@H](O)[C@@]1(C)C(=O)[C@H](O)C3=C(C)[C@@H](OC(=O)[C@H](O)[C@@H](NC(=O)OC(C)(C)C)c4ccccc4)C[C@@](O)([C@@H](OC(=O)c4ccccc4)[C@H]21)C3(C)C [Docetaxel] + O=C(CCCCCCC(=O)Nc1ccccc1)NO [Vorinostat] (partner 1 µM)
relative viability (NCI-H1734; first compound 0.0002 µM): 0.618 | relative viability (NCI-H1734; first compound 0.000632 µM): 0.506 | relative viability (NCI-H1734; first compound 0.002 µM): 0.304 | relative viability (NCI-H1734; first compound 0.006325 µM): 0.328 | relative viability (NCI-H1734; first compound 0.02 µM): 0.207 | relative viability (NCI-H2085; first compound 0.0002 µM): 0.82 | relative viability (NCI-H2085; first compound 0.000632 µM): 0.734 | relative viability (NCI-H2085; first compound 0.002 µM): 0.736 | relative viability (NCI-H2085; first compound 0.006325 µM): 0.355 | relative viability (NCI-H2085; first compound 0.02 µM): 0.488 | relative viability (COR-L23; first compound 0.0002 µM): 0.492 | relative viability (COR-L23; first compound 0.000632 µM): 0.248 | relative viability (COR-L23; first compound 0.002 µM): 0.151 | relative viability (COR-L23; first compound 0.006325 µM): 0.154 | relative viability (COR-L23; first compound 0.02 µM): 0.0838 | relative viability (NCI-H1437; first compound 0.0002 µM): 0.838 | relative viability (NCI-H1437; first compound 0.000632 µM): 0.522 | relative viability (NCI-H1437; first compound 0.002 µM): 0.553 | relative viability (NCI-H1437; first compound 0.006325 µM): 0.275 | relative viability (NCI-H1437; first compound 0.02 µM): 0.185 | relative viability (NCI-H1651; first compound 0.0002 µM): 0.41 | relative viability (NCI-H1651; first compound 0.000632 µM): 0.582 | relative viability (NCI-H1651; first compound 0.002 µM): 0.463 | relative viability (NCI-H1651; first compound 0.006325 µM): 0.159 | relative viability (SK-LU-1; first compound 0.0002 µM): 0.754 | relative viability (SK-LU-1; first compound 0.000632 µM): 0.537 | relative viability (SK-LU-1; first compound 0.002 µM): 0.38 | relative viability (SK-LU-1; first compound 0.006325 µM): 0.349 | relative viability (SK-LU-1; first compound 0.02 µM): 0.226 | relative viability (CAL-12T; first compound 0.0002 µM): 0.411 | relative viability (CAL-12T; first compound 0.000632 µM): 0.35 | relative viability (CAL-12T; first compound 0.002 µM): 0.255 | relative viability (CAL-12T; first compound 0.006325 µM): 0.142 | relative viability (CAL-12T; first compound 0.02 µM): 0.12 | relative viability (NCI-H358; first compound 0.0002 µM): 0.625 | relative viability (NCI-H358; first compound 0.000632 µM): 0.399 | relative viability (NCI-H358; first compound 0.002 µM): 0.109 | relative viability (NCI-H358; first compound 0.006325 µM): 0.112 | relative viability (NCI-H358; first compound 0.02 µM): 0.0606 | relative viability (LOU-NH91; first compound 0.0002 µM): 0.873 | relative viability (LOU-NH91; first compound 0.000632 µM): 0.628 | relative viability (LOU-NH91; first compound 0.002 µM): 0.436 | relative viability (LOU-NH91; first compound 0.006325 µM): 0.397 | relative viability (LOU-NH91; first compound 0.02 µM): 0.347 | relative viability (NCI-H1650; first compound 0.0002 µM): 0.54 | relative viability (NCI-H1650; first compound 0.000632 µM): 0.499 | relative viability (NCI-H1650; first compound 0.002 µM): 0.226 | relative viability (NCI-H1650; first compound 0.006325 µM): 0.196 | relative viability (NCI-H1650; first compound 0.02 µM): 0.162 | relative viability (LU99A; first compound 0.0002 µM): 0.529 | relative viability (LU99A; first compound 0.000632 µM): 0.373 | relative viability (LU99A; first compound 0.002 µM): 0.278 | relative viability (LU99A; first compound 0.006325 µM): 0.269 | relative viability (LU99A; first compound 0.02 µM): 0.173 | relative viability (NCI-H1975; first compound 0.0002 µM): 0.723 | relative viability (NCI-H1975; first compound 0.000632 µM): 0.378 | relative viability (NCI-H1975; first compound 0.002 µM): 0.283 | relative viability (NCI-H1975; first compound 0.006325 µM): 0.232 | relative viability (NCI-H1975; first compound 0.02 µM): 0.161 | relative viability (NCI-H1355; first compound 0.0002 µM): 0.631 | relative viability (NCI-H1355; first compound 0.000632 µM): 0.626 | relative viability (NCI-H1355; first compound 0.002 µM): 0.382 | relative viability (NCI-H1355; first compound 0.006325 µM): 0.244 | relative viability (NCI-H1355; first compound 0.02 µM): 0.176 | relative viability (NCI-H2342; first compound 0.0002 µM): 0.625 | relative viability (NCI-H2342; first compound 0.000632 µM): 0.662 | relative viability (NCI-H2342; first compound 0.002 µM): 0.569 | relative viability (NCI-H2342; first compound 0.006325 µM): 0.445 | relative viability (NCI-H2342; first compound 0.02 µM): 0.475 | relative viability (BEN; first compound 0.0002 µM): 0.526 | relative viability (BEN; first compound 0.000632 µM): 0.526 | relative viability (BEN; first compound 0.002 µM): 0.337 | relative viability (BEN; first compound 0.006325 µM): 0.373 | relative viability (BEN; first compound 0.02 µM): 0.299 | relative viability (NCI-H1793; first compound 0.0002 µM): 0.724 | relative viability (NCI-H1793; first compound 0.000632 µM): 0.479 | relative viability (NCI-H1793; first compound 0.002 µM): 0.199 | relative viability (NCI-H1793; first compound 0.006325 µM): 0.26 | relative viability (NCI-H1793; first compound 0.02 µM): 0.163 | relative viability (NCI-H460; first compound 0.0002 µM): 0.637 | relative viability (NCI-H460; first compound 0.000632 µM): 0.349 | relative viability (NCI-H460; first compound 0.002 µM): 0.0613 | relative viability (NCI-H460; first compound 0.006325 µM): 0.0388 | relative viability (NCI-H460; first compound 0.02 µM): 0.0166 | relative viability (NCI-H838; first compound 0.0002 µM): 0.623 | relative viability (NCI-H838; first compound 0.000632 µM): 0.385 | relative viability (NCI-H838; first compound 0.002 µM): 0.328 | relative viability (NCI-H838; first compound 0.006325 µM): 0.208 | relative viability (NCI-H838; first compound 0.02 µM): 0.16 | relative viability (HCC-366; first compound 0.0002 µM): 0.299 | relative viability (HCC-366; first compound 0.000632 µM): 0.0824 | relative viability (HCC-366; first compound 0.002 µM): 0.0503 | relative viability (HCC-366; first compound 0.006325 µM): 0.0366 | relative viability (HCC-366; first compound 0.02 µM): 0.0211 | relative viability (NCI-H441; first compound 0.0002 µM): 0.713 | relative viability (NCI-H441; first compound 0.000632 µM): 0.53 | relative viability (NCI-H441; first compound 0.002 µM): 0.223 | relative viability (NCI-H441; first compound 0.006325 µM): 0.219 | relative viability (NCI-H441; first compound 0.02 µM): 0.165 | relative viability (NCI-H2023; first compound 0.0002 µM): 0.466 | relative viability (NCI-H2023; first compound 0.002 µM): 0.101 | relative viability (NCI-H2023; first compound 0.006325 µM): 0.0951 | relative viability (NCI-H2023; first compound 0.02 µM): 0.0577
